Data published in US20180099931A1 (AbbVie S.à.r.l., priority 2016, published 2018).
Read-outs that look alike come from different tables or passages of the source.

Target: T1, F508delCFTR (Homo sapiens, UniProt P13569, DEL508-508)
T1 construct: expressed in transfected cells; host or cells: CFBE41o- human lung-derived epithelial cells (CFBE4lo-F508delCFTR-HRP), doxycycline-inducible
Experiment: Cell Surface Expression-Horse Radish Peroxidase (CSE-HRP) Assay;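 as to Maximum % activity (with co-corrector): co-corrector and positive control are both the same reference corrector at 2 µM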
Format: cell-based
Conditions: for Emax / Maximum % activity (with co-corrector): maximum at any tested concentration, normalized to on-plate positive control; for Emax: read-out: Maximum % activity (without co-corrector)
Experimental: Cell Surface Expression-Horse Radish Peroxidase (CSE-HRP) Assay;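 as to Maximum % activity (with co-corrector): co-corrector and positive control are both the same reference corrector at 2 µM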
The development was achieved by expressing the F508delCFTR mutation along with a horseradish peroxidase (HRP) in the fourth exofacial loop, and then measuring the HRP activity using luminescence readout from these cells, CFBE4lo-F508delCFTR-HRP, that were incubated overnight with the test corrector compounds, either without or with the co-corrector. […] The test compounds were then added either without or with a co-corrector at the required concentrations and further incubated for 18-24 hours at 33° C. The highest concentration tested was 20 μM with an 8-point concentration response curve using a 3-fold dilution in both the test compound without or with the co-corrector. Three replicate plates were run to determine one EC50. All plates contained negative controls (dimethyl sulfoxide, DMSO) and positive control (2 μM of 3-[(2R,4R)-4-({[1-(2,2-difluoro-1,3-benzodioxol-5-yl)cyclopropyl]carbonyl}amino)-7-methoxy-3,4-dihydro-2H-chromen-2-yl]benzoic acid) as well as on-plate concentration response of the positive control. […] The raw counts from the experiment were analyzed using Accelrys® Assay Explorer v3.3.
1−[3*SDPositive Control+3*SDNegative Control/Absolute(MeanPositive Control−MeanNegative Control)]
wherein “SD” is standard deviation.
The % activity measured at each of the 8 test concentrations of the test compound added either without or with a co-corrector (2 μM of 3-[(2R,4R)-4-({[1-(2,2-difluoro-1,3-benzodioxol-5-yl)cyclopropyl]carbonyl}amino)-7-methoxy-3,4-dihydro-2H-chromen-2-yl]benzoic acid) was normalized to the on-plate positive control using the following formulae:
% activity(Test compound without co-corrector)=[(test compound without co-corrector response−DMSO response)/(positive control response−DMSO response)]*100
% activity(Test compound with co-corrector)=[(test compound with co-corrector response−DMSO response)/(positive control response−DMSO response)]*100
The maximum % activity achieved for the test compound either without or with a co-corrector at any tested concentration is presented in Table 4 along with the respective EC50's calculated using the following general sigmoidal curve with variable Hill slope equation (described as Model 42 in the Accelrys® Assay Explorer v3.3 software):
General sigmoidal curve with concentration, response, top, bottom, EC50 and Hill slope. This model describes a sigmoidal curve with an adjustable baseline, a. The equation can be used to fit curves where response is either increasing or decreasing with respect to the independent variable, “x”.
“x” is a concentration of drug under test. “y” is the response. “a” is the maximum response, and “d” is the minimum response “c” is the inflection point (EC50) for the curve. That is, “y” is halfway between the lower and upper asymptotes when x=c. “b” is the slope-factor or Hill coefficient. The sign of b is positive when the response increases with increasing dose and is negative when the response decreases with increasing dose (inhibition).

[1] = test compound without co-corrector
[2] = test compound without co-corrector, read-out: EC50 (without co-corrector)
[3] = with co-corrector (2 μM of 3-[(2R,4R)-4-({[1-(2,2-difluoro-1,3-benzodioxol-5-yl)cyclopropyl]carbonyl}amino)-7-methoxy-3,4-dihydro-2H-chromen-2-yl]benzoic acid), read-out: EC50 (with co-corrector)
[4] = with co-corrector (2 μM of 3-[(2R,4R)-4-({[1-(2,2-difluoro-1,3-benzodioxol-5-yl)cyclopropyl]carbonyl}amino)-7-methoxy-3,4-dihydro-2H-chromen-2-yl]benzoic acid)
[5] = CSE-HRP, test compound without co-corrector, read-out: EC50 (without co-corrector)
[6] = CSE-HRP, with co-corrector (2 μM of 3-[(2R,4R)-4-({[1-(2,2-difluoro-1,3-benzodioxol-5-yl)cyclopropyl]carbonyl}amino)-7-methoxy-3,4-dihydro-2H-chromen-2-yl]benzoic acid), read-out: EC50 (with co-corrector)
[7] = CSE-HRP, with co-corrector (2 μM)

T1 sequence (P13569 with tags, fused parts or gaps DEL508-508): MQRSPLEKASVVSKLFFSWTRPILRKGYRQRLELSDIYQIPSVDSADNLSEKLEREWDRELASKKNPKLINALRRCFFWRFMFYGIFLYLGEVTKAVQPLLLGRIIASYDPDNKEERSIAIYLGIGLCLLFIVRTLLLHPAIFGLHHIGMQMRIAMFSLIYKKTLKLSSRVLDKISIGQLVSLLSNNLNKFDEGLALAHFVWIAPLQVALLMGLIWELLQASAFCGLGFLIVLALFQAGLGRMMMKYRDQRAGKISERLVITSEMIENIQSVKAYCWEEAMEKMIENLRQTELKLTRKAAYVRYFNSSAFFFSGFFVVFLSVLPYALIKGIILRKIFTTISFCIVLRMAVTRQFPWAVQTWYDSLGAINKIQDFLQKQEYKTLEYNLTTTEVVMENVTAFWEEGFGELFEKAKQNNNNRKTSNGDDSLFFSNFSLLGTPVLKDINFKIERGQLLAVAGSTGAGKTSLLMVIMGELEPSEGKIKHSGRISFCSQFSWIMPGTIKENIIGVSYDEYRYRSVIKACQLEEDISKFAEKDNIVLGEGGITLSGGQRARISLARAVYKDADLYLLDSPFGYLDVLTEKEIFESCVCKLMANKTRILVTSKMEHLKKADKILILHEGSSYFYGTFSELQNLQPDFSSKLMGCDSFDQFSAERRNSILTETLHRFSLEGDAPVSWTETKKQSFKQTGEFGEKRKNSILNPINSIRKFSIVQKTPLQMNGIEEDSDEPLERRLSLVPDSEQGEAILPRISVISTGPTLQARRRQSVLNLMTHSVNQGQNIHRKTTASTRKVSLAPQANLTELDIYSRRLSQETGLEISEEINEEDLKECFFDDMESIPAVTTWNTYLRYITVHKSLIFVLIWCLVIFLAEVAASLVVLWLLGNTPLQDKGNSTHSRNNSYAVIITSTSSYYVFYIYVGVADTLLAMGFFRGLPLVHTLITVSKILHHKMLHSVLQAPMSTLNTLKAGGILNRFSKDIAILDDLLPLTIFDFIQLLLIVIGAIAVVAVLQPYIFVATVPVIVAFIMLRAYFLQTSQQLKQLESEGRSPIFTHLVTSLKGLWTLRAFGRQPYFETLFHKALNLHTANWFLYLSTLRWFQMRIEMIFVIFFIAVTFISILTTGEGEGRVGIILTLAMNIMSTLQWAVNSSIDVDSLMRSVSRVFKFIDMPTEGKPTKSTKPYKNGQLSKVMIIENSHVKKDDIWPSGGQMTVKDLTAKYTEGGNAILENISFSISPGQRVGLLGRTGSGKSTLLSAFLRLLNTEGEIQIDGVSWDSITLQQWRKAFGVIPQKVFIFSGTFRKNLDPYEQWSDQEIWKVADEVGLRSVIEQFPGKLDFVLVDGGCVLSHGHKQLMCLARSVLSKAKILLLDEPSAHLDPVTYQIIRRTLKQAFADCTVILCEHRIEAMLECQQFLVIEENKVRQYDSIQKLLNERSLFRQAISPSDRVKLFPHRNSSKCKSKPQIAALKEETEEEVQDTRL

Row | SMILES | Emax [1] | EC50 [2] | EC50 [3] | Maximum % activity (with co-corrector) (with co-corrector (2 μM)) | Maximum % activity (with co-corrector) [4] | EC50 [5] | EC50 [6] | Maximum % activity (with co-corrector) [7] | Emax (CSE-HRP, without co-corrector) | Emax (without co-corrector) | Maximum % activity (with co-corrector) (with co-corrector (2 μM of 3-[(2R,4R)-4-({[1-(2,2-difluoro-1,3-benzodioxol-5-yl)cyclopropyl]carbonyl}amino)-7-methoxy-3,4-dihydro-2H-chromen-2-yl]benzoic acid), 2 µM)
1 | CC(C)(C)[C@H]1[C@H](NCc2ccc3c(c2)CCCO3)[C@H](c2ccccc2)N(C(=O)C2CCCCC2)[C@@H]1C(=O)O [III-120] | < 100% | > 10 µM | 1 to 10 µM | ++ (≥150 and <350) |  |  |  |  |  |  | 
2 | COc1ccc(C(C)(C)C)cc1CN[C@H]1[C@H](C(C)(C)C)[C@@H](C(=O)O)N(C(=O)C2CC(C)(C)C2)[C@H]1c1ccccc1 [II-328] | > 200% | 1 to 10 µM | 1 to 10 µM |  | +++ (≥350) |  |  |  |  |  | 
3 | COc1cc(C(F)(F)F)ccc1CN[C@@H]1[C@@H](C(C)(C)C)[C@H](C(=O)O)N(C(=O)C2CCC3(CC2)CC3)[C@@H]1c1ccccc1 (racemic) [III-105] | < 100% | 1 to 10 µM | 1 to 10 µM | ++ (≥150 and <350) |  |  |  |  |  |  | 
4 | COc1cc(C(F)(F)F)ccc1CN[C@H]1[C@H](C(C)(C)C)[C@@H](C(=O)O)N(C(=O)C2CCCCC2)[C@H]1c1cccnc1C [II-94] |  |  |  |  |  | 1 to 10 µM | 1 to 10 µM | +++ (≥350) | 100 to 200% |  | 
5 | COc1ccc(C23CC(C2)C3)cc1CN[C@H]1[C@H](C(C)(C)C)[C@@H](C(=O)O)N(C(=O)C2CCCCC2)[C@H]1c1cccnc1OC(F)F [Example I-228] |  | 1 to 10 µM | 1 to 10 µM | +++ (≥350) |  |  |  |  |  | 100 to 200% | 
6 | COc1ccc(C(C)(C)C)cc1CN[C@H]1[C@H](C(C)(C)C)[C@@H](C(=O)O)N(C(=O)[C@H](C)Oc2ccccc2)[C@H]1c1ccccc1 [II-319] | > 200% | 1 to 10 µM | < 1 µM |  | +++ (≥350) |  |  |  |  |  | 
7 | Cc1cc(C(F)(F)F)cc(N[C@@H]2[C@@H](C(C)(C)C)[C@H](C(=O)NS(=O)(=O)C3CC3)N(C(=O)C3CCCCC3)[C@@H]2c2ccccc2)n1 (racemic) [III-52] | < 100% | > 10 µM | < 1 µM |  | ++ (≥150 and <350) |  |  |  |  |  | 
8 | COc1ccc(C2(C)CCC2)cc1CN[C@H]1[C@H](C(C)(C)C)[C@@H](C(=O)O)N(C(=O)[C@@H]2CCCCO2)[C@H]1c1ccccc1F [II-546] | > 200% | 1 to 10 µM | 1 to 10 µM |  | +++ (≥350) |  |  |  |  |  | 
9 | COc1ccc(C(C)(C)C)cc1CN[C@H]1[C@H](C(C)(C)C)[C@@H](C(=O)O)N(C(=O)[C@]2(C)CCc3c(OC)cccc32)[C@H]1c1ccccc1 [II-366] | 100 to 200% | 1 to 10 µM | 1 to 10 µM |  | +++ (≥350) |  |  |  |  |  | 
10 | COc1cc(C(F)(F)F)ccc1CN[C@H]1[C@H](C(C)(C)C)[C@@H](C(=O)O)N(C(=O)C2C3CCCC32)[C@H]1c1ccccc1 (stereo partly drawn) [Example 65, (2S,3S,4S,5S)-1-(bicyclo[3.1.0]hexane-6-carbonyl)-3-tert-butyl-4-({[2-methoxy-4-(trifluoromethyl)phenyl]methyl}amino)-5-phenylpyrrolidine-2-carboxylic acid] |  | 1 to 10 µM | 1 to 10 µM | +++ (≥350) |  |  |  |  |  | 100 to 200% | 
11 | COc1ccc(C(C)(C)C)cc1CN[C@H]1[C@H](C(C)(C)C)[C@@H](C(=O)O)N(C(=O)C2CCCCC2)[C@H]1c1ccccc1C [II-576] | > 200% | < 1 µM | < 1 µM |  | +++ (≥350) |  |  |  |  |  | 
12 | COc1ccc(C(C)(C)C)cc1CN[C@H]1[C@H](C(C)(C)C)[C@@H](C(=O)O)N(C(=O)OC(C)C)[C@H]1c1ccccc1 [Example I-81] |  | 1 to 10 µM | 1 to 10 µM | +++ (≥350) |  |  |  |  |  | > 200% | 
13 | COc1ncc(C(F)(F)F)cc1CN[C@H]1[C@H](C(C)(C)C)[C@@H](C(=O)O)N(C(=O)[C@H]2C[C@@H]3CC[C@H]2O3)[C@H]1c1ccccc1C(C)C (relative stereo) [Example I-270] |  |  |  |  |  | < 1 µM | < 1 µM | +++ (≥350) | > 200% |  | 
14 | COc1ccc(CN(C)C)cc1CN[C@H]1[C@H](C(C)(C)C)[C@@H](C(=O)O)N(C(=O)C2CCCCC2)[C@H]1c1ccccc1 [Example I-85] |  | > 10 µM | > 10 µM | + (<150) |  |  |  |  |  | < 100% | 
15 | COc1nc(C(C)(C)C)ccc1CN[C@H]1[C@H](C(C)(C)C)[C@@H](C(=O)O)N(C(=O)[C@H]2OC[C@H]3CCC[C@H]32)[C@H]1c1ccccc1 (relative stereo) [II-432] | < 100% | 1 to 10 µM | 1 to 10 µM |  | +++ (≥350) |  |  |  |  |  | 
16 | Cc1cc(C(F)(F)F)cc(N[C@@H]2[C@@H](C(C)(C)C)[C@H](C(=O)O)N(C(=O)C3CCCCC3)[C@@H]2c2cccnc2N(C)C)n1 (racemic) [III-46] | < 100% | 1 to 10 µM | 1 to 10 µM |  | ++ (≥150 and <350) |  |  |  |  |  | 
17 | COc1ccc(C(C)(C)C)cc1CN[C@H]1[C@H](C(C)(C)C)[C@@H](C(=O)O)N(C(=O)C2CCc3ccc(F)cc3O2)[C@H]1c1cccnc1N(C)C (single isomer, unassigned) [II-452] | 100 to 200% | 1 to 10 µM | 1 to 10 µM |  |  |  |  |  |  |  | +++ (≥350)
18 | COc1ncc(C(C)(C)C)cc1N[C@H]1[C@H](C(C)(C)C)[C@@H](C(=O)O)N(C(=O)C2CCCCC2)[C@H]1c1ccccc1 [Example 55, (2S,3S,4S,5S)-3-tert-butyl-4-[(5-tert-butyl-2-methoxypyridin-3-yl)amino]-1-(cyclohexanecarbonyl)-5-phenylpyrrolidine-2-carboxylic acid] |  | 1 to 10 µM | 1 to 10 µM | ++ (≥150 and <350) |  |  |  |  |  | < 100% | 
19 | COc1cc(C(C)(C)C)ccc1CN[C@H]1[C@H](C(C)(C)C)[C@@H](C(=O)O)N(C(=O)C2CCCCC2)[C@H]1c1cccnc1N(C)C [II-102] |  |  |  |  |  | 1 to 10 µM | < 1 µM | +++ (≥350) | 100 to 200% |  | 
20 | COc1ncc(C(F)(F)F)cc1CN[C@H]1[C@H](C(C)(C)C)[C@@H](C(=O)O)N(C(=O)[C@H](OC)c2ccccc2)[C@H]1c1ccccc1 [II-83] |  |  |  |  |  | 1 to 10 µM | < 1 µM | +++ (≥350) | > 200% |  | 
21 | COc1ccc(C(C)(C)C)cc1CN[C@H]1[C@H](C(C)(C)OC)[C@@H](C(=O)O)N(C(=O)OC(C)C)[C@H]1c1cccnc1N(C)C [Example I-220] |  | 1 to 10 µM | 1 to 10 µM | +++ (≥350) |  |  |  |  |  | > 200% | 
22 | COc1ccc(C(F)(F)F)cc1CN[C@@H]1[C@@H](C(C)(C)C)[C@H](C(=O)O)N(C(=O)[C@@H](OC)c2ccccc2)[C@@H]1c1ccccc1 [II-64] |  |  |  |  |  | > 10 µM | 1 to 10 µM | ++ (≥150 and <350) | < 100% |  | 
23 | COc1ccc(C(C)(C)C)cc1CN[C@H]1[C@H](C(C)(C)C)[C@@H](C(=O)O)N(C(=O)c2c(C)nn(-c3ccccc3)c2C)[C@H]1c1ccccc1 [II-229] |  |  |  |  |  | 1 to 10 µM | 1 to 10 µM | +++ (≥350) | > 200% |  | 
